Results as given in the Bradley open melting point set (2014).

Row | Compound | melting point [°C]
1 | C(=N\c1ccccc1Nc1ccccc1/N=C/c1ccccc1)/c1ccccc1 | 103
2 | C/C=C/C1Nn2c(nnc2-c2cccnc2)S1 (configuration not stated) | 121
3 | O=C1CCCc2cc3c(c(CSc4ccccc4)c21)-c1ccccc1OC3 | 91
4 | C=C1/C(=N/Nc2cc(Cl)c(Cl)cc2Cl)C(=O)N(C)C(=O)N1C | 244
5 | CC1=NN(CN2CCCCC2)C(=O)/C1=N\Nc1ccc(Cl)cc1Cl | 123
6 | CCN(Cc1ccc(Cl)nc1)/C(=C/[N+](=O)[O-])NC | 72
7 | CN(C)c1ccc(/C=C(/C#N)c2nc(-c3ccc(Cl)cc3)cs2)cc1 | 134
8 | CN(C)c1ccc(C=C/C(=N\Nc2ccccc2)c2ccccc2)cc1 | 128
9 | COc1cc(/C=C/C(=O)NCCc2ccc(OCc3ccccc3)c(OC)c2)ccc1OCc1ccccc1 | 164
10 | COc1ccc(-c2csc(/C(C#N)=N/Nc3cc(C)ccc3C)n2)cc1 | 156
11 | COc1ccc(-c2csc(/C(C#N)=N/Nc3ccc(C)cc3)n2)cc1 | 152
12 | COc1ccc(/C=C(\Oc2ccc(Cl)cc2)c2nc3ccccc3s2)cc1 | 138
13 | COc1ccc(/C=C2\N=C(c3ccccc3)OC2=O)cc1OC | 133
14 | COc1ccc(/N=N/c2sc(CC#N)nc2C)cc1 | 159
15 | COc1ccc(N/N=C(\C#N)c2nc(-c3ccccc3)cs2)cc1 | 151
16 | COc1ccc(N/N=C2/C(=O)N(CO)N=C2C(F)(F)F)cc1 | 143
17 | COc1ccccc1-c1ccc(/C=C/C(=O)c2ccco2)o1 | 97
18 | Cc1ccc(/C=C(\Oc2cccc(C)c2)c2nc3ccccc3s2)cc1 | 138
19 | Cc1ccc(C(=O)c2nn(-c3ccccc3)/c(=N\N=C\c3ccco3)s2)cc1 | 114
20 | Cc1cccc(N/N=C(\C#N)c2nc(-c3ccc(Cl)cc3)cs2)c1 | 158
21 | Cc1nc(/C(C#N)=C\c2ccc(Cl)cc2Cl)sc1/N=N/c1ccc(F)cc1 | 139
22 | ClC1=C(Cl)[C@]2(Cl)[C@@H]3[C@@H]4C[C@@H]([C@H]5O[C@@H]45)[C@@H]3[C@@]1(Cl)C2(Cl)Cl | 176
23 | O=C(O)C1C(C(=O)O)C2(Cl)C(Cl)=C(Cl)C1(Cl)C2(Cl)Cl (configuration not stated) | 240
24 | ClC1=C(Cl)[C@]2(Cl)C3C(Cl)C(Cl)CC3[C@@]1(Cl)C2(Cl)Cl (some centres not stated) | 106

Row | Compound | melting point [°C]
25 | O=c1ncn2nc(Sc3ccccc3)ccc2c1-c1c(Cl)cccc1Cl | 264
26 | Cn1c(/C(C#N)=C/c2ccc(F)cc2)nc2ccccc21 | 134
27 | Cn1c(/C(C#N)=N/Nc2ccc(Cl)cc2Cl)nc2ccccc21 | 161
28 | O=C(Nc1ccccn1)C(C(F)(F)F)C(F)(F)F | 109
29 | CCCCOc1ccc(NC(=O)C(F)(F)C(F)(F)C(F)(F)C(F)(F)C(F)(F)C(F)(F)C(F)(F)C(F)(F)F)cc1 | 137
30 | N#C/C(=C\c1ccc(Cl)cc1)c1nc(-c2cccc3ccccc23)cs1 | 131
31 | C(=NNc1ccccc1)C(=NNc1ccccc1)c1cccc(C(C=NNc2ccccc2)=NNc2ccccc2)c1 | 165
32 | NS(=O)(=O)c1cc2c(cc1Cl)NCNS2(=O)=O | 274
33 | Nc1ccc(/N=N/c2ccc(/N=N/c3ccc(/N=N/c4ccc(/N=N/c5ccc(N)cc5)cc4)cc3)cc2)cc1 | 292
34 | CCCOC1CCC2C3CC=C4CC5(CCC4(C)C3CCC12C)OCCO5 (configuration not stated) | 209
35 | COc1ccc(C(=O)Nc2ccc(-c3ccc4nn(-c5ccccc5)nc4c3)cc2)cc1 | 106
36 | CC1NC(C(=O)O)CC2=C3C=CCC=C3N=C21 (configuration not stated) | 244
37 | CC[C@@H](C(=O)[C@@H](C)[C@@H](O)[C@H](C)[C@@H]1O[C@@H]([C@@H](CC)C(=O)O)CC[C@@H]1C)[C@H]1O[C@]2(C=C[C@@H](O)[C@]3(CC[C@@](C)([C@H]4CC[C@](O)(CC)[C@H](C)O4)O3)O2)[C@H](C)C[C@@H]1C | 113
38 | O=C(OC[C@H]1O[C@@H](OC(=O)c2cc(O)c(O)c(OC(=O)c3cc(O)c(O)c(O)c3)c2)[C@H](OC(=O)c2cc(O)c(O)c(OC(=O)c3cc(O)c(O)c(O)c3)c2)[C@@H](OC(=O)c2cc(O)c(O)c(OC(=O)c3cc(O)c(O)c(O)c3)c2)[C@@H]1OC(=O)c1cc(O)c(O)c(OC(=O)c2cc(O)c(O)c(O)c2)c1)c1cc(O)c(O)c(OC(=O)c2cc(O)c(O)c(O)c2)c1 | 210
39 | O=C(c1ccc(Cl)cc1)c1nn(-c2ccccc2)/c(=N\N=C\c2ccc(F)cc2)s1 | 151
40 | O=C1/C(=N\Nc2cccc(F)c2)C(C(F)(F)F)=NN1c1ccccc1 | 106
41 | O=C1OC(c2ccccc2)=N/C1=C/c1ccc(-c2ccccc2Br)o1 | 160
42 | C[C@@H]1C[C@@H]([C@H](O)CC2CC(=O)NC(=O)C2)C(=O)[C@@H](C)C1 | 120
43 | O=C(O)c1cc(/N=N/c2ccc(S(=O)(=O)Nc3ccccn3)cc2)ccc1O | 249
44 | O=[N+]([O-])c1ccc(N/N=C2/Cc3c2ccc2ccccc32)c([N+](=O)[O-])c1 | 275
45 | C[C@H](Cc1ccc(O)c(O)c1)[C@@H](C)Cc1ccc(O)c(O)c1 | 180
46 | CN(C)c1ccc(C2Nn3c(COc4ccccc4)nnc3S2)cc1 (configuration not stated) | 144
47 | FC(F)(F)c1cc(-c2cccs2)nc2cc(-c3cccs3)nn12 | 159

Further lines, results first:

Row | melting point [°C] | Compound
48 | 74.5 | CCCCCCSc1cc(N(NC(=O)OC(C)(C)C)C(=O)OC(C)(C)C)cc(SCCCCCC)c1SCCCCCC
49 | 153 | C=CC1=C(/C=N/Nc2ccc([N+](=O)[O-])cc2[N+](=O)[O-])CCCC1
50 | 84 | CC(=O)/C(=N/Nc1cc(Cl)ccc1Cl)C(=O)C(F)(F)F
51 | 158 | CC(=O)/N=c1\sc(C(C)=O)nn1-c1ccc(F)cc1
52 | 313 | CC(=O)N(C(C)=O)c1cc(/C=C/C(=O)O)ccc1/C=C/C(=O)O
53 | 247 | CC(=O)Nc1ccc(/N=N/c2ccc(/N=N/c3ccc(/N=N/c4ccc(NC(C)=O)cc4)cc3)cc2)cc1
54 | 58 | CC(=O)Oc1c(-c2ccccc2)n(C(C)=O)c2cc([N+](=O)[O-])c(/C(Cl)=C/c3ccccc3)cc12
55 | 162 | CC(C)CCCC(C)C1CC[C@@]2(C)[C@@]34CCC5[C@H](C)[C@@H](O)CC[C@]5(C)[C@]3(CC[C@]12C)O4 (some centres not stated)
56 | 2 | Cc1c(C)c2c(c(C)c1O)CC[C@@](C)(CCC[C@H](C)CCC[C@H](C)CCCC(C)C)O2
57 | 156 | CC1(C)C(=O)OC2=C(CCC/C2=C\c2ccccc2)C1c1ccccc1 (configuration not stated)
58 | 107 | CC12CCC(/C(=C/N(O)c3ccccc3)C1=O)C2(C)C (configuration not stated)
59 | 65 | CC1CCC(C(C)C)C(OC(=O)/C(=C/c2ccccc2)Cc2ccccc2)C1 (configuration not stated)
60 | 46 | CC1CCC(C(C)C)C(OC(=O)C(=O)/C=C/c2ccccc2)C1 (configuration not stated)
61 | 147 | CCOC(=O)/C(=N/Nc1cc(Cl)ccc1Cl)C(=O)C(F)(F)F
62 | 76 | CCOC(=O)/C(=N/Nc1ccc(Cl)cc1)C(=O)C(F)(F)F
63 | 74 | CCOC(=O)/C(=N/Nc1ccccc1[N+](=O)[O-])C(C)=O
64 | 147 | CCOC1Oc2ccc(C)cc2C(=O)/C1=C\Nc1nc2ccc(Cl)cc2s1 (configuration not stated)
65 | 108 | Cc1c(N(C)C)c(=O)n(-c2ccccc2)n1C
66 | 119 | COC1=C(OC)/C(=C/C2CCC=CC23OC(=O)C(OC)=C3OC)OC1=O (configuration not stated)
67 | 97 | COc1cc(C)c2c(c1)CC/C(=C\c1ccccc1)C2=O
68 | 146 | CC(=O)N1CCN(c2ccc(OCC3COC(Cn4ccnc4)(c4ccc(Cl)cc4Cl)O3)cc2)CC1 (configuration not stated)
69 | 124 | COc1ccc(C=C2C3=C(CCCC3)OC3=C2CCCC3)cc1
70 | 230 | CCn1cc(C(=O)O)c(=O)c2ccc(C)nc21
71 | 210 | Cc1cc(C2(c3cc(C)c(O)c(CN(CC(=O)O)CC(=O)O)c3)OS(=O)(=O)c3ccccc32)cc(CN(CC(=O)O)CC(=O)O)c1O
72 | 132 | CC(C)(C)OC(=O)NCCCC[C@H](NC(=O)OCC1c2ccccc2-c2ccccc21)C(=O)O

Row | melting point [°C] | Compound
73 | 139 | COC(=O)c1cc2ccccc2c(OC(=O)c2ccccc2C)c1C(=O)OC
74 | 50 | CC1CCC(C(C)C)C(OC(=O)C2(C)CCC(C)C2(C)C)C1 (configuration not stated)
75 | 118 | CC(=O)OC1CCC2(C)C3CCC4=C(CCC4(C)C(C)OC(C)=O)C3CCC2(C)C1 (configuration not stated)
76 | 134 | CC(=O)OC1COC(C#N)C(OC(C)=O)C1OC(C)=O (configuration not stated)
77 | 111 | Cc1ccc(C(=O)OC2CC(C#N)OC2OC(=O)c2ccc(C)cc2)cc1 (configuration not stated)
78 | 114 | CC(=O)OCC1OC(C#N)=CC(OC(C)=O)C1OC(C)=O (configuration not stated)
79 | 174 | CC(C)C1=C(O)C(=O)C2=C(C1=O)C(O)CC1C(C)(C)CCCC21C (configuration not stated)
80 | 227 | O=C1C2CC3=C(CC=CC3)CC2C(=O)C2CC3=C(CC=CC3)CC12 (configuration not stated)
81 | 90 | CC(=O)OC1CCCC2=CC(=O)CCC21C (configuration not stated)
82 | 188 | CC12CCC(=O)CC1CCC1C2CCC2(C)C1CCC21OCCO1 (configuration not stated)
83 | 159 | CC1=C(C(=O)OCc2ccccc2)C(c2ccc3c(c2)OCO3)NC(=O)N1 (configuration not stated)
84 | 269 | O=C1OC(=O)C23Cc4ccccc4CC12Cc1ccccc1C3 (configuration not stated)
85 | 117 | COC(=O)C12C=CC(CC1)C1C(=O)OC(=O)C12 (configuration not stated)
86 | 70 | CC12C=CC(O1)C1C(=O)OC(=O)C12 (configuration not stated)
87 | 166 | COc1ccc2c(c1)CC1(CCC(O)(c3ccc(C(C)(C)C)cc3)CC1)C2=O (configuration not stated)
88 | 163 | O=[N+]([O-])c1ccc(N/N=C/C2=C(/C=C/c3ccccc3)CCCC2)c([N+](=O)[O-])c1
89 | 81 | CCCCCCCCCCCCCCCCCCN1c2ccccc2C(C)(C)C12C=Cc1cc([N+](=O)[O-])ccc1O2 (configuration not stated)
90 | 101 | CC12CCC(O)CC1CC1(OCCO1)C1C2CCC2(C)C1CCC21OCCO1 (configuration not stated)
91 | 238 | CC(C)CCCC(C)C1CCC2C3CC(O)C4(O)CC(O)CCC4(C)C3CCC12C (configuration not stated)
92 | 104 | CC(CCc1oc2ccc(C)cc2c1-c1ccc(C)o1)=NO
93 | 180 | COc1cc(/C=C/C(=O)CC(=O)/C=C/c2ccc(O)c(OC)c2)ccc1O
94 | 101 | CCSC(SCC)=C1CCCC(=C(SCC)SCC)C1=C(C#N)C#N
95 | 86 | CCOC(=O)C=C1SC(N2CCCCC2)C(=O)N1CC (configuration not stated)
96 | 129 | COc1ccc(NC(=S)c2cc(C(C)(C)C)c(O)c(C(C)(C)C)c2)cc1
97 | 218 | CCOC(=O)C12C(c3ccccc3O[P+]1([O-])OCC)C1(C(=O)OCC)C2c2ccccc2O[P+]1([O-])OCC (configuration not stated)
